# Data taken from patent publication US20070098802A1, “Organic nanoparticles and associated methods” (priority 2005, published 2007).
# Assay: Nanoparticle size by light scattering and scanning electron microscopy
# Format: physicochemical
# Details: 0.5% (w/v), 5 mg/ml glyburide in 70% ethanol and 30% chloroform by weight; water added until clouding
# Procedure: A 0.5% (w/v) mixture of 5 mg/ml of glyburide in 70% ethanol and 30% chloroform by weight is prepared. To this mixture, water is added until clouding is observed at which point the emulsion has formed. Light scattering and scanning electron microscopy show the resulting nanoparticle size is on average about 500 nm. A few large nanoparticles may be observed of up to 1 to 3 μm.
compound,measurement,value
COc1ccc(Cl)cc1C(=O)NCCc1ccc(S(=O)(=O)NC(=O)NC2CCCCC2)cc1 [glyburide],"resulting nanoparticle size, on average",about 500 nm
